US20230049549A1, “PEPTIDE COMPOUNDS AND METHODS OF TREATING DISEASES USING SAME” (Immunity Pharma Ltd., priority 2020, published 2023)
Where no end group is shown, it is not given here. [ ]: non-standard residue; d: D form. dimethylproline = dimethylproline (dMP); Aib = CC(C)(N)C(=O)O

Tested on: BALB/c mice
Experiment: Rescue from dexamethasone-induced spleen and thymus weight and cell loss in mice
Format: in vivo, mouse
Conditions: for Average: average of spleen weight, spleen cell number, thymus weight, thymus cell number, Normal = 100%, DEXA alone 47%; for Thymus Cell number: relative to Normal mice = 100% (DEXA alone 23%); for Thymus Cell number / Thymus Weight / Spleen Cell number / Spleen Weight: dexamethasone 100 μg IP, peptide 200 μg/mouse IV immediately and 24 hours after, sacrificed 48 hours; for Thymus Weight: relative to Normal mice = 100% (DEXA alone 44%); for Spleen Cell number: relative to Normal mice = 100% (DEXA alone 59%); for Spleen Weight: relative to Normal mice = 100% (DEXA alone 62%)
Experimental: Dexamethasone is a corticosteroid medication that induces apoptosis of immune cells and lymphomyeloid tissues. BALB/c mice were used to examine the ability of candidate peptides to rescue lymphocyte cells from apoptosis. Mice were injected IP with 100 μg of Dexamethasone. Dexamethasone-treated mice received immediately following and 24-hours after dexamethasone treatment IV injection of candidate peptides (200 μg peptide/mouse). Mice were sacrificed 48 hours after the first treatment. The spleen and the thymus were weighted and full cell count of both organs was performed.
Peptides used in the screen were SEQ ID NOs: 1-13. The peptide of SEQ ID NO: 42 was used as a positive control. The peptides set forth in SEQ ID NOs: 35-41 were used as negative controls.

Substance	Average [%]	Thymus Cell number [%]	Thymus Weight [%]	Spleen Cell number [%]	Spleen Weight [%]
1 (LPPL[Aib]YP) [compound 1]	65	28	59	82	89
2 (LPPLPY[Aib]) [compound 2]	65	25	61	85	89
4 ([dP]PL[Aib]Y-NH2; N-terminus assumed; SMILES CC(C)C[C@H](NC(=O)[C@@H]1CCCN1C(=O)[C@H]1CCCN1)C(=O)NC(C)(C)C(=O)N[C@@H](Cc1ccc(O)cc1)C(N)=O) [compound 4]	61	31	55	82	77
5 ([dL]PPH[Aib]Y-NH2; N-terminus assumed; SMILES CC(C)C[C@@H](N)C(=O)N1CCC[C@H]1C(=O)N1CCC[C@H]1C(=O)N[C@@H](Cc1c[nH]cn1)C(=O)NC(C)(C)C(=O)N[C@@H](Cc1ccc(O)cc1)C(N)=O) [compound 5]	68	49	52	91	81
6 (LPP[dL]PYP) [compound 6]	58	23	48	80	80
7 (L[dimethylproline]PLPYP) [compound 7]	67	29	72	82	84
8 (LPPVPYP) [compound 8]	60	30	53	82	76
9 (LPPSPYP) [compound 9]	61	31	55	82	76
10 (LPPHPYP) [compound 10]	65	33	56	85	84
11 ([dL]PPHPYP) [compound 11]	68	49	52	91	81
12 ([dL]P[Aib]LAYP) [compound 12]	72	51	63	85	89
13 (LP[dimethylproline]LPYP) [compound 13]	65	44	49	84	82
35 (LPPH[Aib]YP) [compound 35]	52	39	42	65	62
36 ([dL]PPH[Aib]YP) [compound 36]	54	40	43	69	64
37 (Ac-PPL[Aib]Y-NH2; SMILES CC(=O)N1CCC[C@H]1C(=O)N1CCC[C@H]1C(=O)N[C@@H](CC(C)C)C(=O)NC(C)(C)C(=O)N[C@@H](Cc1ccc(O)cc1)C(N)=O) [compound 37]	55	24	48	77	69
38 ([dL]PPL[Aib]YP) [compound 38]	52	24	50	66	67
39 ([dL]PPL[Aib]Y) [compound 39]	55	27	50	73	69
40 ([dL]PPLAY) [compound 40]	55	34	41	72	72
41 ([dL]PPLAY[Aib]) [compound 41]	51	25	49	61	69
42 (LPPLPYP) [compound 42]	59	34	47	78	79
